Assay results published in ChEMBL document CHEMBL4130473, “Design, synthesis and biological evaluation of 4,7,12,12a-tetrahydro-5H-thieno[3',2':3,4]pyrido[1,2-b]isoquinolines as novel adenosine 5'-monophosphate-activated protein kinase (AMPK) indirect activators for the treatment of type 2 diabetes” (Eur J Med Chem, 2017).
Active and inactive are the calls of the source. The rule behind the calls is not given here.

What was measured:
[1] = system: L6; assay: Stimulation of glucose consumption in rat L6 cells at 20 uM incubated for 12 hrs by glucose assay reagent based glucose oxidase method relative to untreated control; type: functional
[2] = biological target: AMP-activated protein kinase (AMPK) alpha-1/beta-1/gamma-1 (Homo sapiens) (UniProt P54619+Q9Y478+Q13131); assay: Activation of human recombinant AMPKalpha1beta1gamma1 expressed in Escherichia coli at 50 nM incubated for 1 hr using serine/threonine kinase substrate
[3] = biological target: AMPK alpha1/beta1/gamma2 (Homo sapiens) (UniProt Q9UGJ0+Q9Y478+Q13131); assay: Activation of human recombinant AMPKalpha1beta1gamma2 expressed in Escherichia coli at 50 nM incubated for 1 hr using serine/threonine kinase substrate
[4] = biological target: AMPK alpha1/beta2/gamma1 (Homo sapiens) (UniProt O43741+P54619+Q13131); assay: Activation of human recombinant AMPKalpha1beta2gamma1 expressed in Escherichia coli at 50 nM incubated for 1 hr using serine/threonine kinase substrate
[5] = biological target: AMP-activated protein kinase alpha-1/beta-2/gamma-3 (Homo sapiens) (UniProt O43741+Q13131+Q9UGI9); assay: Activation of human recombinant AMPKalpha1beta2gamma3 expressed in Escherichia coli at 50 nM incubated for 1 hr using serine/threonine kinase substrate
[6] = biological target: AMPK alpha2/beta1/gamma1 (Homo sapiens) (UniProt P54646+P54619+Q9Y478); assay: Activation of human recombinant AMPKalpha2beta1gamma1 expressed in Escherichia coli at 50 nM incubated for 1 hr using serine/threonine kinase substrate
[7] = biological target: AMP-activated protein kinase alpha-2/beta-1/gamma-3 (Homo sapiens) (UniProt P54646+Q9Y478+Q9UGI9); assay: Activation of human recombinant AMPKalpha2beta1gamma3 expressed in Escherichia coli at 50 nM incubated for 1 hr using serine/threonine kinase substrate
[8] = biological target: AMPK alpha2/beta2/gamma1 (Homo sapiens) (UniProt P54646+O43741+P54619); assay: Activation of human recombinant AMPKalpha2beta2gamma1 expressed in Escherichia coli at 50 nM incubated for 1 hr using serine/threonine kinase substrate
[9] = biological target: AMP-activated protein kinase alpha-2/beta-2/gamma-2 (Homo sapiens) (UniProt P54646+O43741+Q9UGJ0); assay: Activation of human recombinant AMPKalpha2beta2gamma2 expressed in Escherichia coli at 50 nM incubated for 1 hr using serine/threonine kinase substrate

AMP-activated protein kinase alpha-2/beta-1/gamma-3 (Homo sapiens), sequence (P54646 whole entry): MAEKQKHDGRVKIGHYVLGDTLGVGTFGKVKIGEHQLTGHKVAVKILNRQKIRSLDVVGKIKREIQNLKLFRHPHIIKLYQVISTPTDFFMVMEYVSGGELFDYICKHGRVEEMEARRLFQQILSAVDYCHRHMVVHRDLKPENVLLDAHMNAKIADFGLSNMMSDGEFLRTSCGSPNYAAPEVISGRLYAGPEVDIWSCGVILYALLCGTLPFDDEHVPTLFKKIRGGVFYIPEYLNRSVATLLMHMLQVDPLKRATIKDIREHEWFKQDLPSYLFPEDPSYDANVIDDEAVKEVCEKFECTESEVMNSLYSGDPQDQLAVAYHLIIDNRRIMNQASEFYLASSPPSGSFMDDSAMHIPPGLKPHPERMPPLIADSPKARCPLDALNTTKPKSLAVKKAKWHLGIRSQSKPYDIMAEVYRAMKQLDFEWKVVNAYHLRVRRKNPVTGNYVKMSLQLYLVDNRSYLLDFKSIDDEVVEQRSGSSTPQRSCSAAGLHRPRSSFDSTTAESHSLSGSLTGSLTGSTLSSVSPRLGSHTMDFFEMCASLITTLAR
AMP-activated protein kinase alpha-2/beta-1/gamma-3 (Homo sapiens), sequence (Q9UGI9 whole entry partner): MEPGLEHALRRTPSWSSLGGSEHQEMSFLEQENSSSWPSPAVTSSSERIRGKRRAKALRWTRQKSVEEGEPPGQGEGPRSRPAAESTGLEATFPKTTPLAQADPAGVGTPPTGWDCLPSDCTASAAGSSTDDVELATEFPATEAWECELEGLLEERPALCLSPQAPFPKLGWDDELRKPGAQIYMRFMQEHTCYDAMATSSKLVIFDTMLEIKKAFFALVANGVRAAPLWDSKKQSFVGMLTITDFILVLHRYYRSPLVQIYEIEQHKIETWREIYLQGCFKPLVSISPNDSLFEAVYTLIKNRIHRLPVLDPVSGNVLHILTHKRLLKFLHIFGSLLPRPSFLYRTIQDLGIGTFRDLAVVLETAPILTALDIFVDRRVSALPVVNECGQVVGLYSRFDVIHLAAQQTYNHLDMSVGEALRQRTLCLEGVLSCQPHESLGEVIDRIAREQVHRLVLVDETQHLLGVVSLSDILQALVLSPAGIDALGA
AMP-activated protein kinase alpha-2/beta-1/gamma-3 (Homo sapiens), sequence (Q9Y478 2-270 partner limits assumed): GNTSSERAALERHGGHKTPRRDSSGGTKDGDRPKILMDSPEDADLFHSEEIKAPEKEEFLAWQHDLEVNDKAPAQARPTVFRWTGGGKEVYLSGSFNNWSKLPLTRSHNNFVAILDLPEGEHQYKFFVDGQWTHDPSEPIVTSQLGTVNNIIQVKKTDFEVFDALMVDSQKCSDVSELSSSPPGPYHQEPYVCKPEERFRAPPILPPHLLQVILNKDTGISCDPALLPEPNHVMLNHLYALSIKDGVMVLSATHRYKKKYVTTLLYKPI
AMPK alpha1/beta1/gamma2 (Homo sapiens), sequence (Q13131 whole entry partner): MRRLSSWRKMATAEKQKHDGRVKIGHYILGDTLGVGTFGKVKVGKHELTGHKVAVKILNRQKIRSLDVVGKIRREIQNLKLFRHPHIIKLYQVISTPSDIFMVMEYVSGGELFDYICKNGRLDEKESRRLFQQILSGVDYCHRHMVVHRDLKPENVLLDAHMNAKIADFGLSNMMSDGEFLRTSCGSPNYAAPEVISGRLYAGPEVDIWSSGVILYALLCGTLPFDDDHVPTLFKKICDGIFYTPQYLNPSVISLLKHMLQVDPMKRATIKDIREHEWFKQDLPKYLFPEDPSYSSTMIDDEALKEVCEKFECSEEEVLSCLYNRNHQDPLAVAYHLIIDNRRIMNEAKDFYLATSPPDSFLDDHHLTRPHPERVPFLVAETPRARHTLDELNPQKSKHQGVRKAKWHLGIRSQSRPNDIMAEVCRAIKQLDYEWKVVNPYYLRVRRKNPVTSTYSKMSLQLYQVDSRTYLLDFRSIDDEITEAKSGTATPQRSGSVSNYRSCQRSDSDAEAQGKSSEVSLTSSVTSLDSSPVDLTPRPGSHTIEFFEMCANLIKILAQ
AMPK alpha1/beta1/gamma2 (Homo sapiens), sequence (Q9UGJ0 whole entry): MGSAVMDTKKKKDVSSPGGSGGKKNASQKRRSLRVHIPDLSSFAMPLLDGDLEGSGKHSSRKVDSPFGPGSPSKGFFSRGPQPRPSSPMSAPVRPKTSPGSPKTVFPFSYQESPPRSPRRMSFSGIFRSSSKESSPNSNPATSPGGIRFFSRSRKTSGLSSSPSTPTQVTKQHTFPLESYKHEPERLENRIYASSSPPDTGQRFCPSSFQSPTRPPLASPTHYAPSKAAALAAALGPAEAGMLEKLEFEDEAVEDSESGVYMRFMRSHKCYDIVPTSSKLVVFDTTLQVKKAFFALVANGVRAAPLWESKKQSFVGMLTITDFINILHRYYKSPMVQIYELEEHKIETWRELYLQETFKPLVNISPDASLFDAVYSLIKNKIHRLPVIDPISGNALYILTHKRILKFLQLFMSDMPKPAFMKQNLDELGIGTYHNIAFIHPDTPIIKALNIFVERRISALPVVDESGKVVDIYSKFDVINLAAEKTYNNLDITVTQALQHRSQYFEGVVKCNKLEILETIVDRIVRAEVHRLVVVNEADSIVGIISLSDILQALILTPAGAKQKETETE
AMPK alpha1/beta1/gamma2 (Homo sapiens), sequence (Q9Y478 2-270 partner limits assumed): as the sequence (Q9Y478 2-270 partner limits assumed) above
AMPK alpha2/beta1/gamma1 (Homo sapiens), sequence (P54619 whole entry partner): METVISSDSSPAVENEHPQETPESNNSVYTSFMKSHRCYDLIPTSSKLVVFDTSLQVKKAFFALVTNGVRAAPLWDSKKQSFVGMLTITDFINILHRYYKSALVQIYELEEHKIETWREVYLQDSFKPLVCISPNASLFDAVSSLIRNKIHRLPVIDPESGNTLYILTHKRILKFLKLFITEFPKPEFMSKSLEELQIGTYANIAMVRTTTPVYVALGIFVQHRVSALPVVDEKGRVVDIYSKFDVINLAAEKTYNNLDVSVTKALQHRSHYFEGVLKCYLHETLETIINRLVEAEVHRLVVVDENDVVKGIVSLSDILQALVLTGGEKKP
AMPK alpha2/beta1/gamma1 (Homo sapiens), sequence (P54646 whole entry): as the sequence (P54646 whole entry) above
AMPK alpha2/beta1/gamma1 (Homo sapiens), sequence (Q9Y478 2-270 partner limits assumed): as the sequence (Q9Y478 2-270 partner limits assumed) above

Structure (SMILES) | Activity [1] [%] | other results
CC(=O)Nc1cc2c(cc1OCc1ccccc1)CN1CCc3sccc3C1C2 (centres undefined) | 138.5 | 
CNC(=O)c1cc2c(s1)CCN1Cc3c(OC)ccc(OC)c3CC21 (centres undefined) | 113.8 | 
COC(=O)c1cc2c(s1)CCN1Cc3c(OC)ccc(OC)c3CC21 (centres undefined) | 82.5 | 
c1cncc(Cc2cc3c(s2)CCN2Cc4ccccc4CC32)c1 (centres undefined) | 151.9 | 
O=C(Cc1ccccc1)Nc1ccc2c(c1)CC1c3ccsc3CCN1C2 (centres undefined) | 120.4 | 
COc1ccc(OC)c2c1CC1c3cc(C(=O)N4CCn5c(nnc5C(F)(F)F)C4)sc3CCN1C2 (centres undefined) | 93.9 | 
COc1cc2c(cc1O)CC1c3ccsc3CCN1C2 (centres undefined) | 114.9 | 
COc1ccc(OC)c2c1CC1c3cc(COC(C)=O)sc3CCN1C2 (centres undefined) | 107.6 | 
CC(=O)Nc1ccc2c(c1)CC1c3ccsc3CCN1C2 (centres undefined) | 107.7 | 
COc1ccc(OC)c2c1CC1c3cc(CO)sc3CCN1C2 (centres undefined) | 109.5 | 
COc1ccc(OC)c2c1CC1c3cc(C(=O)O)sc3CCN1C2 (centres undefined) | 116 | 
COc1ccc(OC)c2c1CC1c3cc(CC4CCNCC4)sc3CCN1C2 (centres undefined) | 103.4 | 
COc1ccc(OC)c2c1CC1c3cc(CN4CCCC4)sc3CCN1C2 (centres undefined) | 131.8 | 
N#Cc1c(O)c2c(-c3ccc(-c4ccccc4O)cc3)csc2[nH]c1=O |  | Activity [2]: Active; Activity [3]: Active; Activity [4]: inactive; Activity [5]: inactive; Activity [6]: Active; Activity [7]: Active; Activity [8]: inactive; Activity [9]: inactive
COc1cc(Cl)c2c(c1O)CN1CCc3sccc3C1C2 (centres undefined) | 97.8 | 
COc1cc2c(cc1O)CN1CCc3sccc3C1C2 (centres undefined) | 105.2 | 
COc1ccc(OC)c2c1CC1c3cc(C(=O)N4CCOCC4)sc3CCN1C2 (centres undefined) | 93.2 | 
